Data taken from patent US20140242707A1, “Compositions and Methods for Diagnosing Hypercoagulability and Hypocoagulability” (Philadelphia Health & Education Corporation d/b/a Drexel …, priority 2011, published 2014).

System: horse plasma
Test: Thrombelastography of horse plasma, coagulation and fibrinolysis study (with tPA)
Type: biochemical
Conditions: for % TTG Loss / MRL / MRTG / TMRL / TMRTG / TTG / CGT / CLS / CLT: CORM-2 100 μM
Procedure: Blood was collected directly into plastic tubes containing 0.105 M sodium citrate (9:1, v/v) from the jugular vein of ten clinically normal grade and American Quarter Horse mares between 400 and 600 kg. Three additional horses to be subsequently described with acute gastrointestinal disease had blood samples similarly collected. The mares were group-housed in corrals. Plasma was obtained by centrifugation of citrated whole blood at 3000×g for 15 minutes and immediately frozen at −80° C. Plasma was subsequently shipped on dry ice and stored at −80° C. until thrombelastographic analysis.
In the second series of experiments assessing both coagulation and fibrinolysis, sample composition consisted of 316 μl of plasma; 10 μl of tissue factor reagent (0.1% final concentration), 10 μl of tissue type plasminogen activator (tPA, 580 Genentech, Inc., San Francisco, Calif., USA; 300 IU/ml final concentration); 3.6 μl of dH2O, or 3.6 μl dH2O containing PHA (10 mM final concentration), or 3.6 μl of CORM-2 (100 μM final concentration) and 20 μl of 200 mM CaCl2. The effects of converting heme groups to either a carboxyheme or metheme in horse plasma during clot growth and fibrinolysis were assessed as subsequently described.
Plasma sample mixtures were placed in a disposable cup in a computer-controlled Thrombelastograph® hemostasis system (Model 5000, Haemoscope Corp., Niles, Ill., USA), with addition of CaCl2 as the last step to initiate clotting. Data were collected at 37° C. for 15 min in the first series of experiments involving coagulation alone, whereas in the experiments involving fibrinolysis data were collected until clot lysis time was observed. Elastic modulus-based parameters previously described were determined (Nielsen et al., 2009, Blood Coagul Fibrinolysis, 20: 377-380; Nielsen et al., 2009, Blood Coagul Fibrinolysis, 20: 448-455). The nomenclature used to describe these phenomena is as follows:
Time to maximum rate of thrombus generation (TMRTG): This is the time interval (min) observed prior to maximum speed of clot growth.
Maximum rate of thrombus generation (MRTG): This is the maximum velocity of clot growth observed (dynes/cm^2/sec).
Total Thrombus Generation (TTG): This is the total area under the velocity curve during clot growth (dynes/cm^2), representing the amount of clot strength generated during clot growth.
Time to maximum rate of lysis (TMRL): This is the time interval (min) measured from the time of maximum strength to the time when the velocity of clot disintegration is maximal.
Maximum Rate of Lysis (MRL): This is the maximum velocity of clot disintegration observed (-dynes/cm^2/sec).
Clot growth time (CGT): This is the time from clot amplitude of 2 mm [102 dynes/cm^2] until maximum strength is achieved, in min.
Clot lifespan (CLS): This is the sum of CGT and CLT.
Thrombelastographic data are presented as mean±SD or as individual animal parameter values as appropriate. The effects of addition of CORM-2 and PHA on coagulation and fibrinolytic kinetic parameters were analyzed with one way repeated measures analysis of variance, utilizing Holm-Sidak post hoc test (SigmaStat 3.1, Systat Software, Inc., San Jose, Calif., USA) as appropriate. A P value of <0.05 was considered significant.

[1] = horse with lethal enteritis, tPA
[2] = horse with mild disease, tPA, PHA 10 mM
[3] = horse with moderate disease, tPA, PHA 10 mM
[4] = horse with moderate enteritis, tPA
[5] = normal horses, tPA 300 IU/ml, PHA 10 mM

[C-]#[O+].[C-]#[O+].[C-]#[O+].[C-]#[O+].[C-]#[O+].[C-]#[O+].[Cl][Ru][Cl].[Cl][Ru][Cl] [CORM-2, tricarbonyldichlororuthenium (II) dimer]
% TTG Loss (horse with lethal disease, tPA): 67.4% | MRL (horse with lethal disease, tPA): 0.1 -dynes/cm^2/sec | MRTG (horse with lethal disease, tPA): 2.8 dynes/cm^2/sec | TMRL (horse with lethal disease, tPA): 65.2 min | TMRTG (horse with lethal disease, tPA): 4.1 min | TTG (horse with lethal disease, tPA): 92 dynes/cm^2 | effect on MRL vs control sample [1]: did not affect | increase in MRTG vs control sample [1]: 12% | increase in TMRL vs control sample [1]: 8 fold | increase in TTG vs control sample [1]: 73% | % TTG Loss [2]: 50.7% | MRL [2]: 0.2 -dynes/cm^2/sec | MRTG [2]: 6.8 dynes/cm^2/sec | TMRL [2]: 122.8 min | TMRTG [2]: 3.2 min | TTG [2]: 274 dynes/cm^2 | decrease in MRL vs control sample (horse with mild enteritis, tPA): 88% | decrease in MRTG vs control sample (horse with mild enteritis, tPA): 3% | increase in TMRL vs control sample (horse with mild enteritis, tPA): 46 fold | increase in TTG vs control sample (horse with mild enteritis, tPA): 77% | % TTG Loss [3]: 25.8% | MRL [3]: 0.4 -dynes/cm^2/sec | MRTG [3]: 7.2 dynes/cm^2/sec | TMRL [3]: 62.9 min | TMRTG [3]: 2.5 min | TTG [3]: 198 dynes/cm^2 | decrease in MRL vs control sample [4]: 83% | increase in MRTG vs control sample [4]: 38% | increase in TMRL vs control sample [4]: 55 fold | increase in TTG vs control sample [4]: 160% | decrease in CGT vs control (normal horses, tPA): 26% | decrease in CLS (clot lifespan) vs control (normal horses, tPA): 77% | decrease in CLT vs control (normal horses, tPA): 83% | decrease in MRL vs control (normal horses, tPA): 27% | increase (prolongation) in TMRL vs control (normal horses, tPA): 113% | increase in CGT vs control (normal horses, tPA): 106% | increase in CLS vs control (normal horses, tPA): 154% | increase in CLT vs control (normal horses, tPA): 160% | increase in TTG vs control (normal horses, tPA): 35% | CGT [5]: 6.4 ± 1.7 min | CLS [5]: 77.1 ± 23.8 | CLT [5]: 70.6 ± 23.0 min | MRL [5]: 1.1 ± 0.5 -dynes/cm^2/sec | MRTG [5]: 13.2 ± 3.4 dynes/cm^2/sec | TMRL [5]: 26.2 ± 17.3 min | TMRTG [5]: 2.7 ± 0.4 min | TTG [5]: 312 ± 70 dynes/cm^2

ONc1ccccc1 [PHA, phenylhydroxylamine]
% TTG Loss [2]: 100% | MRL [2]: 2.6 -dynes/cm^2/sec | MRTG [2]: 4.0 dynes/cm^2/sec | TMRL [2]: 2.4 min | TMRTG [2]: 3.4 min | TTG [2]: 100 dynes/cm^2 | decrease in MRTG vs control sample (horse with mild enteritis, tPA): 42% | decrease in TTG vs control sample (horse with mild enteritis, tPA): 28% | difference in TMRL between control and exposed sample (horse with mild enteritis, tPA): 8% | increase in MRL vs control sample (horse with mild enteritis, tPA): 53% | % TTG Loss [3]: 100% | MRL [3]: 2.3 -dynes/cm^2/sec | MRTG [3]: 4.5 dynes/cm^2/sec | TMRL [3]: 2.8 min | TMRTG [3]: 2.8 min | TTG [3]: 94 dynes/cm^2 | change in MRL vs control sample [4]: essentially no change | decrease in MRTG vs control sample [4]: 13% | increase in TMRL vs control sample [4]: 64% | increase in TTG vs control sample [4]: 23% | decrease in CLS (clot lifespan) vs control (normal horses, tPA): 77% | decrease in MRTG vs control (normal horses, tPA): 55% | decrease in TMRL vs control (normal horses, tPA): 84% | increase in MRL vs control (normal horses, tPA): 133% | CGT [5]: 2.3 ± 0.5 min | CLS [5]: 6.9 ± 1.4 | CLT [5]: 4.6 ± 1.3 min | MRL [5]: 3.5 ± 0.8 -dynes/cm^2/sec | MRTG [5]: 5.6 ± 1.3 dynes/cm^2/sec | TMRL [5]: 2.0 ± 0.2 min | TMRTG [5]: 3.2 ± 0.6 min | TTG [5]: 118 ± 26 dynes/cm^2
